Where two headings read alike, the source gives them in different places.
Tests used:
[1] = tested on: Aparima Gold swede (Brassica sp., BRSSS); experiment: Example 1 pot trials, postemergence crop safety, visual phytotoxicity
[2] = tested on: Aparima Gold swede (Brassica sp., BRSSS); experiment: Example 2 field trials (Canterbury, New Zealand), postemergence crop safety, visual phytotoxicity
[3] = tested on: rutabaga (Brassica napus var. napobrassica, BRSNA); details: in vivo
[4] = tested on: turnip or Polish canola (Brassica rapa, BRSRR); details: in vivo
[5] = tested on: kale/Chinese kale (Brassica alboglabra, BRSAG); details: in vivo
[6] = tested on: winter oilseed rape (Brassica napus, BRSNW); details: in vivo
[7] = tested on: Roundup Ready® canola (Brassica napus, RR-BRSNN); details: in vivo
[8] = tested on: Nexera™ canola (Brassica napus, BRSNN-NEX); details: in vivo
[9] = tested on: Nexera™ canola (Brassica napus, BRSNN-NEX); experiment: Example 5 greenhouse trials, postemergence visual injury; details: BRSNN-NEX
[10] = tested on: winter oilseed rape (Brassica napus, BRSNW); experiment: as above; details: BRSNW
[11] = tested on: rutabaga (Brassica napus var. napobrassica, BRSNA); experiment: as above; details: BRSNA
[12] = tested on: turnip or Polish canola (Brassica rapa, BRSRR); experiment: as above; details: BRSRR
[13] = tested on: Roundup Ready® canola (Brassica napus, RR-BRSNN); experiment: as above; details: RR-BRSNN
[14] = tested on: Spring Argentine canola (Brassica napus, BRSNS); experiment: Example 3 field trials (Canada), postemergence crop safety, visual phytotoxicity; details: alone or mixed
[15] = tested on: kale/Chinese kale (Brassica alboglabra, BRSAG); experiment: Example 5 greenhouse trials, postemergence visual injury; details: BRSAG

O=C(O)c1nc(Cl)ccc1Cl [Clopyralid-TIPA, (2RS,2′RS,2″RS)-tris(2-hydroxypropyl)ammonium 3,6-dichloropyridine-2-carboxylate]
2.2%: Mean % Visual Injury ([1]; 3DAA1, 90 g ae/ha)
2.0%: Mean % Visual Growth Inhibition ([2]; 22DAA1, 45 g ae/ha) | Mean % Visual Growth Inhibition ([2]; 56DAA1, 90 g ae/ha)
0.5%: Mean % Visual Injury ([2]; 22DAA1, 90 g ae/ha) | Mean % Visual Injury ([2]; 22DAA1, 180 g ae/ha)
0.0%: Mean % Visual Injury ([1]; 15DAA1, 90 g ae/ha) | Mean % Visual Injury ([1]; 28DAA1, 90 g ae/ha)
8.0%: Mean % Visual Growth Inhibition ([2]; 22DAA1, 90 g ae/ha)
3.0%: Mean % Visual Injury ([2]; 28DAA1, 180 g ae/ha)
7.0%: Mean % Visual Growth Inhibition ([2]; 22DAA1, 180 g ae/ha)
0.4%: Mean % Visual Injury ([1]; 7DAA1, 90 g ae/ha)
2.5%: Mean % Visual Growth Inhibition ([2]; 28DAA1, 45 g ae/ha)
4.0%: Mean % Visual Growth Inhibition ([2]; 56DAA1, 180 g ae/ha)
4.5%: Mean % Visual Injury ([2]; 28DAA1, 90 g ae/ha)
2.8%: Mean % Visual Injury ([2]; 28DAA1, 45 g ae/ha)
6.0%: Mean % Visual Growth Inhibition ([2]; 56DAA1, 45 g ae/ha)
5.0%: Mean % Visual Growth Inhibition ([2]; 28DAA1, 90 g ae/ha)

NCCO.O=C(O)c1nc(Cl)ccc1Cl [Clopyralidolamine]
0%: % Visual Injury Obs [3] | % Visual Injury Obs [4] | % Visual Injury Obs [5] | % Visual Injury Obs [6] | % Visual Injury Obs [7] | % Visual Injury Obs [8]

O=C(O)c1c(Cl)ccc2cc(Cl)cnc12 [Quinclorac, 3,7-dichloro-8-quinolinecarboxylic acid]
1.5%: Mean % Visual Injury ([14]; Table 14, 57DAAA, halauxifen-methyl 5, quinclorac 101 g ae/ha) | Mean % Visual Injury ([14]; Table 15, 57DAAA, halauxifen-methyl 5, clopyralid-olamine 150, quinclorac 101 g ae/ha)
2.3%: Mean % Visual Injury ([14]; Table 27, 7DAAA, halauxifen-methyl 5, quinclorac 101 g ae/ha) | Mean % Visual Injury ([14]; Table 28, 7DAAA, halauxifen-methyl 5, clopyralid-olamine 150, quinclorac 101 g ae/ha)
3.0%: Mean % Visual Injury ([14]; Table 14, 27DAAA, halauxifen-methyl 5, quinclorac 101 g ae/ha) | Mean % Visual Injury ([14]; Table 15, 27DAAA, halauxifen-methyl 5, clopyralid-olamine 150, quinclorac 101 g ae/ha)
0.8%: Mean % Visual Injury ([14]; Table 14, 7DAAA, halauxifen-methyl 5, quinclorac 101 g ae/ha) | Mean % Visual Injury ([14]; Table 15, 7DAAA, halauxifen-methyl 5, clopyralid-olamine 150, quinclorac 101 g ae/ha)
0%: % Visual Injury Obs ([9]; 50 g ai/ha alone, 20-22 d) | % Visual Injury Obs ([9]; 100 g ai/ha alone, 20-22 d) | % Visual Injury Obs ([9]; 200 g ai/ha alone, 20-22 d) | % Visual Injury Obs ([9]; quinclorac 50 g ai/ha) | Visual Injury Obs ([9]; quinclorac 50 g ai/ha) | % Visual Injury Obs ([9]; quinclorac 100 g ai/ha) | Visual Injury Obs ([9]; quinclorac 100 g ai/ha) | % Visual Injury Obs ([9]; quinclorac 200 g ai/ha) | Visual Injury Obs ([9]; quinclorac 200 g ai/ha) | % Visual Injury Obs ([10]; 50 g ai/ha alone, 20-22 d) | % Visual Injury Obs ([10]; 100 g ai/ha alone, 20-22 d) | % Visual Injury Obs ([10]; 200 g ai/ha alone, 20-22 d) | % Visual Injury Obs ([10]; quinclorac 50 g ai/ha) | Visual Injury Obs ([10]; quinclorac 50 g ai/ha) | % Visual Injury Obs ([10]; quinclorac 100 g ai/ha) | Visual Injury Obs ([10]; quinclorac 100 g ai/ha) | % Visual Injury Obs ([10]; quinclorac 200 g ai/ha) | Visual Injury Obs ([10]; quinclorac 200 g ai/ha) | % Visual Injury Obs ([11]; 50 g ai/ha alone, 20-22 d) | % Visual Injury Obs ([11]; 100 g ai/ha alone, 20-22 d) | % Visual Injury Obs ([11]; 200 g ai/ha alone, 20-22 d) | % Visual Injury Obs ([11]; quinclorac 50 g ai/ha) | Visual Injury Obs ([11]; quinclorac 50 g ai/ha) | % Visual Injury Obs ([11]; quinclorac 100 g ai/ha) | Visual Injury Obs ([11]; quinclorac 100 g ai/ha) | % Visual Injury Obs ([11]; quinclorac 200 g ai/ha) | Visual Injury Obs ([11]; quinclorac 200 g ai/ha) | % Visual Injury Obs ([12]; 50 g ai/ha alone, 20-22 d) | % Visual Injury Obs ([12]; 100 g ai/ha alone, 20-22 d) | % Visual Injury Obs ([12]; 200 g ai/ha alone, 20-22 d) | % Visual Injury Obs ([12]; quinclorac 50 g ai/ha) | Visual Injury Obs ([12]; quinclorac 50 g ai/ha) | % Visual Injury Obs ([12]; quinclorac 100 g ai/ha) | Visual Injury Obs ([12]; quinclorac 100 g ai/ha) | % Visual Injury Obs ([12]; quinclorac 200 g ai/ha) | Visual Injury Obs ([12]; quinclorac 200 g ai/ha) | % Visual Injury Obs ([13]; 50 g ai/ha alone, 20-22 d) | % Visual Injury Obs ([13]; 100 g ai/ha alone, 20-22 d) | % Visual Injury Obs ([13]; 200 g ai/ha alone, 20-22 d) | % Visual Injury Obs ([13]; quinclorac 50 g ai/ha) | Visual Injury Obs ([13]; quinclorac 50 g ai/ha) | % Visual Injury Obs ([13]; quinclorac 100 g ai/ha) | Visual Injury Obs ([13]; quinclorac 100 g ai/ha) | % Visual Injury Obs ([13]; quinclorac 200 g ai/ha) | Visual Injury Obs ([13]; quinclorac 200 g ai/ha) | % Visual Injury Obs ([15]; 50 g ai/ha alone, 20-22 d) | % Visual Injury Obs ([15]; 100 g ai/ha alone, 20-22 d) | % Visual Injury Obs ([15]; 200 g ai/ha alone, 20-22 d) | % Visual Injury Obs ([15]; quinclorac 50 g ai/ha) | Visual Injury Obs ([15]; quinclorac 50 g ai/ha) | % Visual Injury Obs ([15]; quinclorac 100 g ai/ha) | Visual Injury Obs ([15]; quinclorac 100 g ai/ha) | % Visual Injury Obs ([15]; quinclorac 200 g ai/ha) | Visual Injury Obs ([15]; quinclorac 200 g ai/ha)
0.5%: Mean % Visual Injury ([14]; Table 21, 40DAAA, halauxifen-methyl 5, quinclorac 101 g ae/ha) | Mean % Visual Injury ([14]; Table 22, 40DAAA, halauxifen-methyl 5, clopyralid-olamine 150, quinclorac 101 g ae/ha) | Mean % Visual Injury ([14]; Table 27, 49DAAA, halauxifen-methyl 5, quinclorac 101 g ae/ha) | Mean % Visual Injury ([14]; Table 28, 49DAAA, halauxifen-methyl 5, clopyralid-olamine 150, quinclorac 101 g ae/ha)
1.8%: Mean % Visual Injury ([14]; Table 27, 17DAAA, halauxifen-methyl 5, quinclorac 101 g ae/ha) | Mean % Visual Injury ([14]; Table 28, 17DAAA, halauxifen-methyl 5, clopyralid-olamine 150, quinclorac 101 g ae/ha)
3.5%: Mean % Visual Injury ([14]; Table 21, 8DAAA, halauxifen-methyl 5, quinclorac 101 g ae/ha) | Mean % Visual Injury ([14]; Table 22, 8DAAA, halauxifen-methyl 5, clopyralid-olamine 150, quinclorac 101 g ae/ha)
1.0%: Mean % Visual Injury ([14]; Table 14, 15DAAA, halauxifen-methyl 5, quinclorac 101 g ae/ha) | Mean % Visual Injury ([14]; Table 15, 15DAAA, halauxifen-methyl 5, clopyralid-olamine 150, quinclorac 101 g ae/ha) | Mean % Visual Injury ([14]; Table 21, 14DAAA, halauxifen-methyl 5, quinclorac 101 g ae/ha) | Mean % Visual Injury ([14]; Table 22, 14DAAA, halauxifen-methyl 5, clopyralid-olamine 150, quinclorac 101 g ae/ha)
0.0%: Mean % Visual Injury ([14]; Table 21, 81DAAA, halauxifen-methyl 5, quinclorac 101 g ae/ha) | Mean % Visual Injury ([14]; Table 22, 81DAAA, halauxifen-methyl 5, clopyralid-olamine 150, quinclorac 101 g ae/ha)
5.3%: Mean % Visual Injury ([14]; Table 27, 32DAAA, halauxifen-methyl 5, quinclorac 101 g ae/ha) | Mean % Visual Injury ([14]; Table 28, 32DAAA, halauxifen-methyl 5, clopyralid-olamine 150, quinclorac 101 g ae/ha)

Source: patent publication US20170354148A1, “SAFENED HERBICIDAL COMPOSITIONS CONTAINING HALAUXIFEN AND METHODS OF USE THEREOF IN BRASSICA SPECIES” (Dow AgroSciences LLC, priority 2016, published 2017)
